{"source": "patent US9920056B2", "about": "“2-oxo-1,3,8-triazaspiro[4.5]decan-3-yl] carboxylic acid derivatives” (Eli Lilly and Company, priority 2015, dated 2018)", "key": {"[1]": {"tested_on": "male c57BL/6 mice", "test": "Oral Glucose Tolerance Test (OGTT): glucose and active GLP-1", "type": "in vivo, mouse", "conditions": "for Active GLP-1 Fold Increase / Glucose % Lowering: vs vehicle", "protocol": "Maintain mice under approved Animal Care and Use protocols for Lilly Research Laboratories and house on a 12 hour light cycle from 6 am to 6 pm. For the OGTT, fast the mice between 3 & 4 pm. The following day at 6 am, measure body weights and collect baseline blood samples via tail vein for glucose (Roche Aviva glucometer). […] No. […] No. DPP-4)/aprotinin (Fisher BioReagents, Cat. No. BP250310), store on wet ice, spin down (3500 rpm, 4° C.), draw off plasma, plate and freeze. […] No. […]-2). Calculate area under the curve (AUC) values."}, "[2]": {"molecular_target": "T1, mouse SSTR5 (Mus musculus, UniProt O08858)", "T1 construct": "expressed in transfected cells; host or cells: probably CHO ('CHO-SSTR5 receptors')", "T1 sequence (O08858 1-362)": "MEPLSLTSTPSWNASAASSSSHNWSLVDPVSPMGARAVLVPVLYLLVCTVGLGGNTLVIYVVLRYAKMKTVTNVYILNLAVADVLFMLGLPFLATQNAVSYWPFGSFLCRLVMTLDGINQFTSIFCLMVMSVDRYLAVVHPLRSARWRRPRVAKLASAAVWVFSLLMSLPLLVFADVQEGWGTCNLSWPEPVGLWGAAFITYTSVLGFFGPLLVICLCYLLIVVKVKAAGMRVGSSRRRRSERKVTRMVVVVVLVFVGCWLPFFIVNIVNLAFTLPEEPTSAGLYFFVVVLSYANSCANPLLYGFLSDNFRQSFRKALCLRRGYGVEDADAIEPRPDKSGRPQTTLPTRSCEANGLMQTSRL", "test": "Somatostatin binding assay (SPA, 125I-Somatostatin 14), mouse SSTR5 membranes", "conditions": "transiently expressed mouse SSTR5 membranes, 0.25 nM [125I]-Somatostatin 14", "protocol": "(§1) The antagonistic effect of the compound of Example 2 can be evaluated in human and mouse SSTR5 binding assays utilizing a scintillation proximity assay (SPA) format for a concentration response curve (CRC) (^125I-Somatostatin 14 binding to CHO-SSTR5 receptors). Perform measurement of SSTR5 binding utilizing either human somatostatin 5 membranes (manufactured by Perkin Elmer (ES-522-M400UA)) at a concentration of 0.4 μg/well or transiently expressed mouse SSTR5 membranes (generated in-house using Lipofectamine 2000 according to the manufacture's protocol (Life Technologies)) at a concentration of 8 μg/well. Homogenize membranes or dilute in buffer (prepare buffer from 25 mM HEPES (manufactured by HyClone), 5 mM MgCl2 (manufactured by Sigma), 1 mM CaCl2 (manufactured by Sigma), 0.5% BSA, pH 7.4 (manufactured by Gibco))."}, "[3]": {"tested_on": "male c57BL/6 mice", "test": "GLP-1 secretion in vivo, 12 hour PK/PD study", "parameters": "species or system mouse", "conditions": "for Active GLP-1 AUC Fold Increase: vs vehicle", "protocol": "Use male c57BL/6 mice from Harlan Laboratories at 8-9 weeks of age to evaluate the effects of the compound of Example 2 on GLP-1 Secretion in vivo during a 12 hour pharmacokinetic/pharmacodynamic (PK/PD) study. Maintain mice under approved Animal Care and Use protocols for Lilly Research Laboratories and house on a 12 hour light cycle from 6 am to 6 pm. The day prior to the evaluation, fast the mice at 6 pm. The following day at 6 am, measure body weight and administer vehicle (HEC 1%/Tween 80 0.25%/Antifoam 0.05%) or the compound of Example 2 alone in vehicle (HEC 1%/Tween 80 0.25%/Antifoam 0.05% suspension). Collect blood samples for measurement of active GLP-1 levels and plasma exposure (˜150 μl into EDTA coated Sarstedt Microvette® CB300 K2E tubes) at 0.25, 0.5, 1, 2, 4, 6, 9, 12 hours post-administration (only two samples collected from each mouse, euthanizing immediately following the second blood collection) Immediately after collecting the blood, preserve active GLP-1 samples with 5 μl of a mixture of DPP4 inhibitor (Bio Trend Cat. No. DPP-4)/aprotinin (Fisher BioReagents, Cat. No. BP250310), store on wet ice, spin down (3500 rpm, 4° C.). Draw off plasma, plate and freeze. Store GLP-1 samples at −80° C. until they can be analyzed utilizing a Meso Scale Discovery Active GLP-1 (v2) Kit (Cat. No. K150JWC-2). Calculate area under the curve (AUC) values."}, "[4]": {"molecular_target": "T2, hSSTR5 (Homo sapiens, UniProt P35346)", "T2 sequence (P35346 whole entry)": "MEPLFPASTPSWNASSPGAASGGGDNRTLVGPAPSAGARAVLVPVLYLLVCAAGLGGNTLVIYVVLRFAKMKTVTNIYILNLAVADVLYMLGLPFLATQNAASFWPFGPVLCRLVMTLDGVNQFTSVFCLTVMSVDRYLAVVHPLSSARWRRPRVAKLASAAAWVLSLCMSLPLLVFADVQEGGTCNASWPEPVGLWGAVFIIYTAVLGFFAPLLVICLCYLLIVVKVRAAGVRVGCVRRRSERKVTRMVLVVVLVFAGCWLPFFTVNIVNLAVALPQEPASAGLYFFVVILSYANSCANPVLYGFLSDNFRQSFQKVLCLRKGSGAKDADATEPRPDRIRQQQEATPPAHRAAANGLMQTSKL", "test": "β-Arrestin whole cell functional assay (PathHunter CHO-K1 hSSTR5 β-arrestin cells)", "type": "cell-based", "parameters": "host or cells: CHO-K1 (PathHunter engineered line)", "conditions": "EC80 agonist 37.5 nM SST14", "protocol": "A β-arrestin whole cell, functional assay, utilizing U20S cells (human osteosarcoma cells), can directly measure effects of the compound of Example 2 on GPCR activity by determining its effects on the interaction of β-arrestin with the activated GPCR. Perform the CRC measurement of β-arrestin activity utilizing PathHunter CHO-K1 hSSTR5 β-arrestin cells from DiscoveRx (93-0402C2). Plate cells at a concentration of 5K/well in 50 μl of assay plating media in 384-well White Plates with opaque bottom (manufactured by Corning (3570)) and incubate overnight at 37° C./5% CO2. Prepare test solutions by diluting 3 μl of Example 2 with 27 μl of DMSO for a step down dilution. Mix the diluted plate of the current invention on a plate shaker for five minutes. Wash cells with 50 μl of PBS (manufactured by HyClone) three times using a plate washer. After washing, use a Wellmate to add 15 μl of assay buffer (assay buffer prepared from HBSS (manufactured by HyClone), 20 mM HEPES (manufactured by HyClone) with 0.1% BSA (manufactured by Gibco)) to the cells followed by 100 nl of the present invention serial dilution. Incubate the cells at 37° C./5% CO2 for 30 min."}, "[5]": {"molecular_target": "T2, hSSTR5", "test": "Somatostatin binding assay (SPA, 125I-Somatostatin 14), human SSTR5 membranes", "parameters": "purchased Perkin Elmer ES-522-M400UA; host or cells: CHO (the text speaks of CHO-SSTR5 receptors)", "conditions": "human somatostatin 5 membranes, 0.25 nM [125I]-Somatostatin 14", "protocol": "as §1"}, "[6]": {"conditions": "Example 1 0.3 mg/kg orally 90 min before glucose bolus"}, "[7]": {"conditions": "Example 1 30 mg/kg orally 90 min before glucose bolus"}, "[8]": {"conditions": "Sitagliptin 10 mg/kg orally 90 min before glucose bolus"}}}
{"smiles": "CCOc1cc(CN2CCC3(CC2)CN(c2ccc(C(=O)O)cc2)C(=O)N3)c(C2CC2)cc1C.Cl", "note": "[Example 1, 4-[8-[(2-Cyclopropyl-5-ethoxy-4-methyl-phenyl)methyl]-2-oxo-1,3,8-triazaspiro[4.5]decan-3-yl]benzoic acid hydrochloride]", "values": [{"measurement": "Active GLP-1 AUC (0-60 min)", "setting": "[1]; [6]", "result": "93.2 ± 15.5", "unit": "pg/mL-min"}, {"measurement": "Glucose AUC (0-60 min)", "setting": "[1]; [6]", "result": "7441 ± 612", "unit": "mg·min/dL"}, {"measurement": "Active GLP-1 Fold Increase", "setting": "[1]; Example 1 0.3 mg/kg orally", "result": 1.8}, {"measurement": "Glucose % Lowering", "setting": "[1]; Example 1 0.3 mg/kg orally", "result": 23, "unit": "%"}, {"measurement": "Active GLP-1 AUC (0-60 min)", "setting": "[1]; [7]", "result": "151 ± 14.0", "unit": "pg/mL-min"}, {"measurement": "Glucose AUC (0-60 min)", "setting": "[1]; [7]", "result": "5674 ± 360", "unit": "mg·min/dL"}, {"measurement": "Active GLP-1 Fold Increase", "setting": "[1]; Example 1 30 mg/kg orally", "result": 2.9}, {"measurement": "Glucose % Lowering", "setting": "[1]; Example 1 30 mg/kg orally", "result": 41, "unit": "%"}, {"measurement": "effect on GLP-1 in OGTT (in words)", "setting": "[1]; OGTT in mice", "result": "increased GLP-1 activity"}, {"measurement": "effect on glucose in OGTT (in words)", "setting": "[1]; OGTT in mice", "result": "glucose lowering effect"}]}
{"smiles": "CCOc1cc(CN2CCC3(CC2)CN(c2ccc(C(=O)O)cc2)C(=O)N3)c(C2CC2)cc1C", "note": "[Example 2, 4-[8-[(2-Cyclopropyl-5-ethoxy-4-methyl-phenyl)methyl]-2-oxo-1,3,8-triazaspiro[4.5]decan-3-yl]benzoic acid hydrate]", "values": [{"measurement": "Ki", "setting": "[2]", "result": 4870, "unit": "pM"}, {"measurement": "Active GLP-1 AUC (0-12 hours)", "setting": "[3]; 0.3 mg/kg, fasted mice", "result": "60.2 ± 2.9", "unit": "pg/mL-hour"}, {"measurement": "Active GLP-1 AUC Fold Increase", "setting": "[3]; 0.3 mg/kg", "result": 1.9}, {"measurement": "Active GLP-1 AUC (0-12 hours)", "setting": "[3]; 1 mg/kg, fasted mice", "result": "71.2 ± 3.3", "unit": "pg/mL-hour"}, {"measurement": "Active GLP-1 AUC Fold Increase", "setting": "[3]; 1 mg/kg", "result": 2.2}, {"measurement": "Active GLP-1 AUC (0-12 hours)", "setting": "[3]; 3 mg/kg, fasted mice", "result": "72.5 ± 4.3", "unit": "pg/mL-hour"}, {"measurement": "Active GLP-1 AUC Fold Increase", "setting": "[3]; 3 mg/kg", "result": 2.3}, {"measurement": "Active GLP-1 AUC (0-12 hours)", "setting": "[3]; 10 mg/kg, fasted mice", "result": "87.3 ± 3.8", "unit": "pg/mL-hour"}, {"measurement": "Active GLP-1 AUC Fold Increase", "setting": "[3]; 10 mg/kg", "result": 2.7}, {"measurement": "Active GLP-1 AUC (0-12 hours)", "setting": "[3]; 30 mg/kg, fasted mice", "result": "86.3 ± 4.6", "unit": "pg/mL-hour"}, {"measurement": "Active GLP-1 AUC Fold Increase", "setting": "[3]; 30 mg/kg", "result": 2.7}, {"measurement": "effect on active GLP-1 (in words)", "setting": "[3]; fasted mice, no glucose load", "result": "non-glucose dependent effect to increase active GLP-1"}, {"measurement": "IC50", "setting": "[4]", "result": 810, "unit": "pM"}, {"measurement": "Ki", "setting": "[5]", "result": 540, "unit": "pM"}]}
{"smiles": "N[C@@H](CC(=O)N1CCn2c(nnc2C(F)(F)F)C1)Cc1cc(F)c(F)cc1F", "note": "[Sitagliptin, sitagliptin, reference compound]", "values": [{"measurement": "Active GLP-1 AUC (0-60 min)", "setting": "[1]; [8]", "result": "343 ± 73", "unit": "pg/mL-min"}, {"measurement": "Glucose AUC (0-60 min)", "setting": "[1]; [8]", "result": "5308 ± 237", "unit": "mg·min/dL"}, {"measurement": "Active GLP-1 Fold Increase", "setting": "[1]; Sitagliptin 10 mg/kg orally", "result": 6.6}, {"measurement": "Glucose % Lowering", "setting": "[1]; Sitagliptin 10 mg/kg orally", "result": 45, "unit": "%"}]}
